In patent US9701628B2, “12-epi pleuromutilins” (NABRIVA THERAPEUTICS AG, priority 2014, dated 2017):
Values after ≈ are worked out from the molar mass of the structure shown. Structures can show the parent of a compound that is named as a salt. Where two headings read alike, the source gives them in different places.

What was measured:
[1] = system: Escherichia coli ATCC25922; assay: MIC by broth microdilution (CLSI) against Escherichia coli ATCC 25922; assay type: cell-based; settings: Escherichia coli ATCC25922, in vitro
Protocol: (§1) The in vitro activity against aerobic bacteria was determined by Broth Microdilution Test according to the Clinical and Laboratory Standards Institute (CLSI, former NCCLS) Document M7-A9 Vol 32, No 2 “Methods for Dilution Antimicrobial Susceptibility Tests for Bacteria that Grow Aerobically; Approved Standard—Ninth Edition (2012)”; and the test against anaerobic bacteria was performed by Agar Dilution Test according to the Clinical and Laboratory Standards Institute (CLSI, former NCCLS), Document, M11-A8, Vol. 32, No. 5: “Methods for Antimicrobial Susceptibility Testing of Anaerobic Bacteria; Approved Standard—Eighth Edition (2012)”. Performance standards and interpretive criteria followed the CLSI Document, M100-S23: “Performance Standards for Antimicrobial Susceptibility Testing; Twenty-Third Informational Supplement” (2013). The in vivo activity was tested by the septicaemia mouse model against Staphylococcus aureus and Escherichia coli.
(§2) The antibacterial activity expressed as minimal inhibitory concentration (MIC) was determined according to the approved standard reference recommendations of CLSI (former NCCLS) as described in the description of the application.

[2] = system: Staphylococcus aureus ATCC 49951; assay: MIC by broth microdilution (CLSI) against Staphylococcus aureus ATCC 49951; assay type: cell-based; settings: Staphylococcus aureus ATCC 49951, in vitro
Protocol: as §1, §2

Compound	MIC [1] [µg/mL]	MIC [2]	MIC ([1]; read-out: MIC) [µg/mL]	MIC ([2]; ATCC49951, read-out: MIC) [µg/mL]
12-epi-12-desvinyl-14-O-{[1-(2-Amino-acetyl)-piperidin-4-yl-methylsulfanyl]-acetyl}-12-[(4-aminomethyl-phenylamino)-methyl] mutilin trihydrochloride [Example 81]	8	0.125 µg/mL	–	–
C=C[C@]1(C)C[C@@H](OC(=O)CSC(C)(C)CNC(=O)[C@H](N)C(C)C)[C@]2(C)[C@H](C)CC[C@]3(CCC(=O)[C@H]32)[C@@H](C)[C@@H]1O [Econor, econor, reference compound]	32 (≈ 56.7 µM)	≦0.03 μg/mL	–	–
C[C@@H]1CC[C@@]23CCC(=O)[C@H]2[C@]1(C)[C@H](OC(=O)CSc1ccc(CC(=O)NCCCN)cc1)C[C@](C)(CNCCCN)[C@@H](O)[C@@H]3C [Example 1, 12-epi-12-desvinyl-14-O-{{4-[(3-Amino-propylcarbamoyl)-methyl]-phenylsulfanyl}-acetyl}-12-[(3-amino-propylamino)-methyl] mutilin trihydrochloride]	–	–	0.5	≤ 0.03
CC1C(O)C(C)(CNCc2ccc(CN)cc2)CC(OC(=O)CSc2ccc(CC(=O)NCCCN)cc2)C2(C)C(C)CCC13CCC(=O)C32.Cl.Cl.Cl (stereo not drawn) [Example 9, 12-epi-12-desvinyl-14-O-{{4-[(3-Amino-propylcarbamoyl)-methyl]-phenylsulfanyl}-acetyl}-12-[(4-aminomethyl-benzylamino)-methyl] mutilin trihydrochloride]	0.5	≦0.03 μg/mL	–	–
CC1C(O)C(C)(CNCCCCCCNC(=N)N)CC(OC(=O)CSc2ccc(CC(=O)NCCCN)cc2)C2(C)C(C)CCC13CCC(=O)C32.Cl.Cl.Cl (stereo not drawn) [Example 11, 12-epi-12-desvinyl-14-O-{{4-[(3-Amino-propylcarbamoyl)-methyl]-phenylsulfanyl}-acetyl}-12-[(6-guanidino-hexylamino)-methyl] mutilin trihydrochloride]	0.25	≦0.03 μg/mL	–	–
C[C@@H]1CC[C@@]23CCC(=O)[C@H]2[C@]1(C)[C@H](OC(=O)CSc1ccc(C(=O)NCc2ccc(CN)cc2)cc1)C[C@](C)(CNCCCCCCN)[C@@H](O)[C@@H]3C [Example 23, 12-epi-12-desvinyl-14-O-{[4-(4-Aminomethyl-benzylcarbamoyl)-phenylsulfanyl]-acetyl}-12-[(6-amino-hexylamino)-methyl] mutilin trihydrochloride]	–	–	1	≤ 0.03
C[C@@H]1CC[C@@]23CCC(=O)[C@H]2[C@]1(C)[C@H](OC(=O)CSC1CCC(CN)CC1)C[C@](C)(CNCCCCCCN)[C@@H](O)[C@@H]3C (stereo partly drawn) [Example 47, 12-epi-12-desvinyl-14-O-{[(4-Aminomethyl-cyclohexyl)-sulfanyl]-acetyl}-12-[(6-amino-hexylamino)-methyl] mutilin trihydrochloride]	–	–	0.5	≤ 0.03
C[C@@H]1CC[C@@]23CCC(=O)[C@H]2[C@]1(C)[C@H](OC(=O)CSc1ccc(CCCN)cc1)C[C@](C)(CNCCCCCCN)[C@@H](O)[C@@H]3C [Example 48, 12-epi-12-desvinyl-14-O-{[4-(3-Amino-propyl)-phenylsulfanyl]-acetyl}-12-[(6-amino-hexylamino)-methyl] mutilin trihydrochloride]	–	–	0.25	≤ 0.03
C[C@@H]1CC[C@@]23CCC(=O)[C@H]2[C@]1(C)[C@H](OC(=O)CSc1ccc(CC(=O)NCCCN)cc1)C[C@](C)(CCNCCCN)[C@@H](O)[C@@H]3C [Example 52, 12-epi-12-desvinyl-14-O-{{4-[(3-Amino-propylcarbamoyl)-methyl]-phenylsulfanyl}-acetyl}-12-[2-(3-amino-propylamino)-ethyl] mutilin trihydrochloride]	–	–	0.5	≤ 0.03
CC1C(O)C(C)(CNCCCCCCN)CC(OC(=O)CSc2cccc(CO)c2)C2(C)C(C)CCC13CCC(=O)C32.Cl.Cl (stereo not drawn) [Example 54, 12-epi-12-desvinyl-14-O-[(3-Hydroxymethyl-phenylsulfanyl)-acetyl]-12-[(6-amino-hexylamino)-methyl] mutilin dihydrochloride]	4	0.125 µg/mL	–	–
C[C@@H]1CC[C@@]23CCC(=O)[C@H]2[C@]1(C)[C@H](OC(=O)CS[C@@H]1CC[C@@H](N)C[C@H]1O)C[C@](C)(CNCCCN)[C@@H](O)[C@@H]3C.Cl.Cl.Cl [Example 62, 12-epi-12-desvinyl-14-O-{[(1R,2R,4R)-4-Amino-2-hydroxy-cyclohexylsulfanyl]-acetyl}-12-[(3-amino-propylamino)-methyl] mutilin trihydrochloride]	4	0.25 µg/mL	–	–
CC1C(O)C(C)(CNCc2ccc(CN)cc2)CC(OC(=O)CSCCO)C2(C)C(C)CCC13CCC(=O)C32.Cl.Cl (stereo not drawn) [Example 64, 12-epi-12-desvinyl-14-O-[(2-Hydroxy-ethylsulfanyl)-acetyl]-12-[(4-aminomethyl-benzylamino)-methyl] mutilin dihydrochloride]	4	0.5 µg/mL	–	–
CC1C(O)C(C)(CNCc2ccc(CN)cc2)CC(OC(=O)CSCCN)C2(C)C(C)CCC13CCC(=O)C32.Cl.Cl.Cl (stereo not drawn) [Example 65, 12-epi-12-desvinyl-14-O-[(2-Amino-ethylsulfanyl)-acetyl]-12-[(4-aminomethyl-benzylamino)-methyl] mutilin trihydrochloride]	2	0.5 µg/mL	–	–
C[C@@H]1CC[C@@]23CCC(=O)[C@H]2[C@]1(C)[C@H](OC(=O)CSc1nnc(N)[nH]1)C[C@](C)(CNCCCCCCN)[C@@H](O)[C@@H]3C.Cl.Cl.Cl [Example 66, 12-epi-12-desvinyl-14-O-{[(5-Amino-4H-1,2,4-triazol-3-yl)-sulfanyl]-acetyl}-12-[(6-amino-hexylamino)-methyl] mutilin trihydrochloride]	4	0.5 µg/mL	–	–
CC1C(O)C(C)(CNCCCCCCN)CC(OC(=O)CSc2ccncc2)C2(C)C(C)CCC13CCC(=O)C32.Cl.Cl.Cl (stereo not drawn) [Example 68, 12-epi-12-desvinyl-14-O-[(Pyridin-4-ylsulfanyl)-acetyl]-12-[(6-amino-hexylamino)-methyl] mutilin trihydrochloride]	4	0.25 µg/mL	–	–
C[C@@H]1CC[C@@]23CCC(=O)[C@H]2[C@]1(C)[C@H](OC(=O)CSC1CCN(C(=O)CN)CC1)C[C@](C)(CNCc1ccc(CN)cc1)[C@@H](O)[C@@H]3C [Example 78, 12-epi-12-desvinyl-14-O-{[1-(2-Amino-acetyl)-piperidin-4-yl-sulfanyl)]-acetyl}-12-[(4-aminomethyl-benzylamino)-methyl] mutilin trihydrochloride]	–	–	2	0.5
C[C@@H]1CC[C@@]23CCC(=O)[C@H]2[C@]1(C)[C@H](OC(=O)CSC1CCN(C(=O)CN)CC1)C[C@](C)(CNCc1ccc(OCCN)cc1)[C@@H](O)[C@@H]3C [Example 83, 12-epi-12-desvinyl-14-O-{[1-(2-Amino-acetyl)-piperidin-4-yl-sulfanyl]-acetyl}-12{2-[4-(2-amino-ethoxy)-benzylamino]-methyl} mutilin trihydrochloride]	–	–	1	0.25
C[C@@H]1CC[C@@]23CCC(=O)[C@H]2[C@]1(C)[C@H](OC(=O)CSc1cccc(CN)c1)C[C@](C)(CNCCCN)[C@@H](O)[C@@H]3C.Cl.Cl.Cl [Example 86, 12-epi-12-desvinyl-14-O-[(3-Aminomethyl-phenylsulfanyl)-acetyl]-12-[(3-amino-propylamino)-methyl] mutilin trihydrochloride]	0.5	0.06 µg/mL	–	–
C[C@@H]1CC[C@@]23CCC(=O)[C@H]2[C@]1(C)[C@H](OC(=O)CSc1ccc(CN)cn1)C[C@](C)(CNCc1ccc(CN)cc1)[C@@H](O)[C@@H]3C [Example 98, 12-epi-12-desvinyl-14-O-{[5-Aminomethyl-pyridin-2-yl-sulfanyl)]-acetyl}-12-[(4-aminomethyl-benzylamino)-methyl] mutilin tetrahydrochloride]	–	–	0.5	0.125
C[C@@H]1CC[C@@]23CCC(=O)[C@H]2[C@]1(C)[C@H](OC(=O)CSc1ccc(CN)cn1)C[C@](C)(CNCc1ccc(CN)c(F)c1)[C@@H](O)[C@@H]3C [Example 99, 12-epi-12-Desvinyl-14-O-{[5-aminomethyl-pyridin-2-yl-sulfanyl)]-acetyl}-12-[(4-aminomethyl-3-fluoro-benzylamino)-methyl] mutilin tetrahydrochloride]	–	–	0.5	0.25
CC1C(O)C(C)(CNCc2cc(F)c(CN)cc2F)CC(OC(=O)CSc2ccc(CN)cn2)C2(C)C(C)CCC13CCC(=O)C32.Cl.Cl.Cl.Cl (stereo not drawn) [Example 103, 12-epi-12-desvinyl-14-O-{[5-Aminomethyl-pyridin-2-yl-sulfanyl]-acetyl}-12-[(4-aminomethyl-2,5-difluoro-benzylamino)-methyl] mutilin tetrahydrochloride]	4	0.5 µg/mL	–	–
CC1C(O)C(C)(CNCCCN)CC(OC(=O)CSc2ccc(CNCc3ccc(CN)cc3)cc2)C2(C)C(C)CCC13CCC(=O)C32.Cl.Cl.Cl.Cl (stereo not drawn) [Example 115, 12-epi-12-desvinyl-14-O-{{4-[(4-Aminomethyl-benzylamino)-methyl]-phenylsulfanyl}-acetyl}-12-[(3-amino-propylamino)-methyl] mutilin tetrahydrochloride]	0.25	≦0.03 μg/mL	–	–
